Data on two compounds can be found in US9855270B2, “Methods and compositions for modulating estrogen receptor mutants” (priority 2014, dated 2018).

Structures are written as SMILES. Where a chain is given by its changes, count along the chain named. Like-named read-outs stand apart in the source and are kept apart here.

The target of assay [1] is T1, ER-α E380Q (Homo sapiens, UniProt P03372, E380Q).
T1 sequence (P03372 1-595 E380Q): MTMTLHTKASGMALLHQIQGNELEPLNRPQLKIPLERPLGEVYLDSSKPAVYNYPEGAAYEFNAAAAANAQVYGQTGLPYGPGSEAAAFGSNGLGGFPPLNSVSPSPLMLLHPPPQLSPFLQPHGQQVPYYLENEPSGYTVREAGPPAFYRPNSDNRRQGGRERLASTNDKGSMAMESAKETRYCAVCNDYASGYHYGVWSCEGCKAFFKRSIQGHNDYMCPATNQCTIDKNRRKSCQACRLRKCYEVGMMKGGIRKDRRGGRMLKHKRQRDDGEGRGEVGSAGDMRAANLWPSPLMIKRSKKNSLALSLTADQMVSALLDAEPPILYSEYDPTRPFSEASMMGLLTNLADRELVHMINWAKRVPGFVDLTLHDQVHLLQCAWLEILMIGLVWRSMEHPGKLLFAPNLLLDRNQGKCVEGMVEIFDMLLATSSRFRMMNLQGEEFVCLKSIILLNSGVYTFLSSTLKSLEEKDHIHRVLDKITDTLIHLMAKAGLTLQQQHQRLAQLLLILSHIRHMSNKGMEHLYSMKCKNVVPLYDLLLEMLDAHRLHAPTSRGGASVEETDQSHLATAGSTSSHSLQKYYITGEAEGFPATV
The conditions noted are these: Agonist Mode; for Efficacy (Emax): −E2, relative to vehicle treated wild-type ER-α. How it is done:
(§1) Cells were transiently transfected using
(§2) Triplicate transfections were performed using 180 ng 3×ERE-TK-Luc (reporter vector), 30 ng pRL-CMV (normalization vector), and 270 ng pCDNA ER-α (or ER-α mutation).
(§3) Following 24 hour incubation the medium was removed and the cells were lysed in 40 μL of lysis buffer (25 mM Tris Phosphate, 2 mM CDTA, 10% Glycerol, 0.5% Triton X-100, 2 mM DTT).

Assay [2] deals with T2, ER-α L536P (Homo sapiens, UniProt P03372, L536P).
T2 sequence (P03372 1-595 L536P): T1 sequence (P03372 1-595 E380Q) with Q380E, L536P
The conditions noted are these: Agonist Mode; for Efficacy (Emax): −E2, relative to vehicle treated wild-type ER-α. How it is done:
as §1, §2, §3

Assay [3] addresses T3, ER-α L536R (Homo sapiens, UniProt P03372, L536R).
T3 sequence (P03372 1-595 L536R): T1 sequence (P03372 1-595 E380Q) with Q380E, L536R
How it is done:
as §1, §2, §3

Assay [4] addresses T4, ER-α Y537N (Homo sapiens, UniProt P03372, Y537N).
T4 sequence (P03372 1-595 Y537N): T1 sequence (P03372 1-595 E380Q) with Q380E, Y537N
How it is done: as §1, §2, §3

The mark [5] stands for this setting: Agonist Mode, −E2, relative to vehicle treated wild-type ER-α.
The mark [6] stands for this setting: Antagonist Mode, +E2, relative to vehicle treated wild-type ER-α.

Consider `C[C@]12CC[C@@H]3c4ccc(O)cc4C[C@@H](CCCCCCCCC[S+]([O-])CCCC(F)(F)C(F)(F)F)[C@H]3[C@@H]1CC[C@@H]2O` (stereo partly drawn) [Fulvestrant], for which the “Efficacy (Emax)” value is recorded as 0.38 in assay [1]; 0.42 in assay [2]; 0.32 ± 0.12 in assay [3] (setting [5]); 0.30 ± 0.11 in assay [3] (setting [6]); 0.30 ± 0.18 in assay [4] (setting [5]); 0.20 ± 0.20 in assay [4] (setting [6]).

As for `CC1=C(c2cccc(O)c2)[C@H](c2ccc(OCCN3CC(CF)C3)cc2)Oc2ccc(O)cc21` [Compound 4-23, (S)-2-(4-(2-(3-(fluoromethyl)azetidin-1-yl)ethoxy)phenyl)-3-(3-hydroxyphenyl)-4-methyl-2H-chromen-6-ol], the “Percent inhibition compared to vehicle” value amounted to 73% in assay [1] (−E2); 68% in assay [2] (−E2); 80% in assay [3] (Agonist Mode, −E2); 94% in assay [3] (Antagonist Mode, +E2); 92% in assay [4] (Agonist Mode, −E2); 96% in assay [4] (Antagonist Mode, +E2). The “Efficacy (Emax)” value in assay [1] is reported as 0.57; in assay [2], 1.01; in assay [3] (setting [5]) it was 0.29 ± 0.22; in assay [3] (setting [6]) it was 0.15 ± 0.07; in assay [4] (setting [5]), 0.32 ± 0.27; in assay [4] (setting [6]), 0.16 ± 0.08.
